Measurements from PubChem BioAssay (NCI).
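Assay format: 96-well plates, 48-hour exposure. The concentration for 50% growth inhibition is given as GI50. TGI: total growth inhibition.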

Legend:
Experiment in all cases: inhibition of tumour cell growth, NCI panel, 48 h
[1] = tested on: ACHN renal
[2] = tested on: SNB-75 CNS
[3] = tested on: U251 CNS
[4] = tested on: TK-10 renal
[5] = tested on: SW-620 colon
[6] = tested on: OVCAR-4 ovarian
[7] = tested on: LOX IMVI melanoma
[8] = tested on: SK-MEL-28 melanoma
[9] = tested on: HCT-15 colon
[10] = tested on: MDA-MB-435

Row | Structure (SMILES) | TGI [1] [µM] | TGI [2] [µM] | TGI [3] [µM] | TGI [4] [µM] | TGI [5] [µM] | TGI [6] [µM] | TGI [7] [µM] | TGI [8] [µM] | TGI [9] [µM] | GI50 [1] [µM] | GI50 [2] [µM] | GI50 [3] [µM] | GI50 [4] [µM] | GI50 [5] [µM] | GI50 [9] [µM] | GI50 [6] [µM] | GI50 [7] [µM] | GI50 [8] [µM] | TGI [10] [µM] | GI50 [10] [µM]
1 | COC(=O)c1c2c(cc3c1CC1(Cc4cc5c(c(C(C)=O)c4C1)CCC5)C3)CCC2 (stereo unspecified) | > 100 | 74.2 | > 100 | > 100 | > 100 | > 100 | > 100 | > 100 |  |  |  |  |  |  |  |  |  |  |  | 
2 | COc1ccc(CCc2cc(OC)cc(OC)c2)cc1 | > 100 | > 81.3 | > 100 | > 100 | > 67.3 | > 100 | > 100 | > 100 | > 100 |  |  |  |  |  |  |  |  |  |  | 
3 | Cc1cc(N(CCC#N)CCC#N)ccc1N=Nc1ccc(Br)cc1 | > 42.2 |  | > 53 | 39.8 | > 100 | > 100 | > 47.1 | > 100 | > 100 |  |  |  |  |  |  |  |  |  |  | 
4 | CN1CCc2c1nc(-c1ccc(Cl)cc1)c1c2N(C)CC1 | 55.6 | 67.7 | 22.5 | 92.6 | > 100 | > 100 | 22.5 |  | > 100 |  |  |  |  |  |  |  |  |  |  | 
5 | CC1=NN(C(=O)c2ccc(Cl)cc2)C(=O)/C1=C/c1ccccc1O | > 100 |  | > 100 | > 100 | > 100 | > 100 | > 100 | > 100 | > 100 |  |  |  |  |  |  |  |  |  |  | 
6 | CC(C)OP(=O)(OC(C)C)/C(N)=N/Nc1ccc([N+](=O)[O-])cc1 | > 100 | > 100 | > 100 | > 100 | > 100 | > 100 | > 100 | > 100 | > 100 |  |  |  |  |  |  |  |  |  |  | 
7 | COC(=O)CC(NC(=O)OCc1ccccc1)C(C(=O)OCc1ccccc1)C(C)(OC)OC (stereo unspecified) | > 100 | 64 | > 100 | > 100 | > 100 | > 100 | 52.7 | > 100 | > 100 |  |  |  |  |  |  |  |  |  |  | 
8 | N.N.N.N.N.O=[N+]([O-])[O-].[Co+3].[O-][Cl+3]([O-])([O-])[O-] | > 100 | > 100 | > 100 | > 100 | > 100 | > 100 | > 100 | > 100 | > 100 | > 100 | 29.6 | > 100 | > 100 | > 100 | > 100 | > 100 | > 100 | > 100 |  | 
9 | CC(C)(C)C(=CS(=O)/N=C/c1ccccc1)C(C)(C)C (stereo unspecified) | > 100 | 63.2 | 84.7 | > 100 | > 100 | 70.9 | 35.4 | > 100 | 80.7 |  |  |  |  |  |  |  |  |  |  | 
10 | CC(=O)OCC(=O)[C@@]12OC(C)(C)O[C@@H]1C[C@H]1[C@@H]3CC(C=O)=C4C=C(OCCCl)CC[C@]4(C)[C@@]3(F)[C@@H](O)C[C@@]12C | > 100 |  | 48.5 | > 100 | > 100 | > 100 | > 100 | 80.1 | > 100 |  |  |  |  |  |  |  |  |  |  | 
11 | O=c1ncccn1C1OC(CO)C(O)C1O (stereo unspecified) | > 100 | > 100 | > 100 | > 100 | > 100 | > 100 | > 100 | > 100 | > 100 |  |  |  |  |  |  |  |  |  |  | 
12 | CC(=O)O[C@]1(C)OC(=O)[C@@H](CC(C)C)N1[N+](=O)[O-] | > 100 | > 100 | > 100 | > 100 | > 100 | > 100 | > 100 | > 100 | > 100 |  |  |  |  |  |  |  |  |  |  | 
13 | COc1ccc(/C(Cl)=C/c2cc(OC)ccc2OC)cc1 | > 100 | > 100 | > 100 |  | > 100 | > 100 |  | > 100 | > 100 |  |  |  |  |  |  |  |  |  |  | 
14 | O=c1[nH]c2ccccc2n1CCCN1CCC(n2c(=O)[nH]c3cc(Cl)ccc32)CC1 | 32.9 |  |  | 39.4 | 39.2 | 37.9 |  | 31.1 | 39.9 |  |  |  |  |  |  |  |  |  | 29.7 | 
15 | C#Cc1c(C)c(/C=C/C(C)=C/C(=O)OC)n(C)c1C | > 100 |  | > 100 | > 100 | > 100 | > 100 | > 100 |  | > 100 |  |  |  |  |  |  |  |  |  |  | 
16 | O=S(=O)(NCn1ccc2ccccc21)c1ccccc1 | > 100 | > 100 | > 100 | > 100 | > 100 |  | > 100 | > 100 | > 100 |  |  |  |  |  |  |  |  |  |  | 
17 | CC1CCSC(N(C(=O)N(C)c2ccccc2)c2ccccc2)=N1 (stereo unspecified) | > 100 | > 100 | > 100 | > 100 | > 100 |  | > 100 | > 100 | > 100 |  |  |  |  |  |  |  |  |  |  | 

Row | Structure (SMILES) | TGI [1] [µM] | TGI [2] [µM] | TGI [3] [µM] | TGI [4] [µM] | TGI [5] [µM] | TGI [6] [µM] | TGI [7] [µM] | TGI [8] [µM] | TGI [9] [µM] | GI50 [1] [µM] | GI50 [2] [µM] | GI50 [3] [µM] | GI50 [4] [µM] | GI50 [5] [µM] | GI50 [9] [µM] | GI50 [6] [µM] | GI50 [7] [µM] | GI50 [8] [µM] | TGI [10] [µM] | GI50 [10] [µM]
18 | NNC(=O)C(=O)N/N=C1\CCC(=O)CC1C(=O)CCC(=O)Nc1ccc(Cl)cc1 (stereo unspecified) | > 100 | > 100 | > 100 | > 100 | > 100 | > 100 | > 100 | > 100 | > 100 |  |  |  |  |  |  |  |  |  |  | 
19 | c1ccc2c(-c3nc(-c4c[nH]c5ccncc45)cs3)c[nH]c2c1 | 3.36 | 22.2 | 3.58 | 4.74 | 3.54 | 11.7 |  | 3.32 | 3.4 | 1.72 | 10.3 | 1.93 | 2.76 | 1.73 | 1.56 | 2.96 |  | 1.84 | 3.23 | 1.75
20 | C=CCC1=C(C)C[C@@H]2CCC(=O)C=C12 | > 100 | > 100 | > 100 | > 100 | > 100 | > 100 | > 100 | > 100 | > 100 |  |  |  |  |  |  |  |  |  |  | 
21 | CCOC(=O)N1CCc2cc(OC)c(OC)cc2/C1=C\c1ccc(OC)c(OC)c1 | 94 | 79.3 | 92.9 | 73.9 | > 100 |  | 40.3 | > 100 | > 100 |  |  |  |  |  |  |  |  |  |  | 
22 | NCCOCCOCCNc1nc(-c2ccc(Cl)cc2)nc(N2CCN(c3ccccn3)CC2)n1 | 6.43 | 7.45 |  |  | 3.35 | 10.5 |  | 3.23 | 3.85 | 2.48 | 2.32 |  |  | 1.75 | 1.87 | 2.78 |  | 1.74 | 3.49 | 1.78
23 | Cc1c(NC(=S)NC(=O)c2ccc([N+](=O)[O-])cc2)c(=O)n(-c2ccccc2)n1C | > 100 | > 100 | > 100 | > 100 | > 100 | > 100 | > 100 | > 100 | > 100 |  |  |  |  |  |  |  |  |  |  | 
24 | CCCC(=O)N[C@H]1C2C3CC4C5CC(C42)C1(C)C53 (stereo partly specified) | > 100 | > 100 | > 100 | > 100 | > 100 | > 100 | > 100 | > 100 | > 100 |  |  |  |  |  |  |  |  |  |  | 
25 | CC(C)CCCC(C)[C@H]1CCC2[C@@H]3CCC4Nc5c(cnn5-c5ccccc5)C[C@]4(C)C3CC[C@@]21C (stereo partly specified) | > 100 | 25.7 | > 100 | > 100 | > 100 | 80.1 |  |  | > 100 |  |  |  |  |  |  |  |  |  |  | 
26 | O=C(O)CCNCCCCNCCC(=O)O | > 100 | > 100 | > 100 | > 100 | > 100 | > 100 | > 100 | > 100 | > 100 |  |  |  |  |  |  |  |  |  |  | 
27 | c1ccc2c(c1)oc1ccc3nsnc3c12 | > 100 | > 100 |  | > 10 | > 100 | > 100 | > 10 | > 100 | > 100 |  |  |  |  |  |  |  |  |  |  | 
28 | O=C(Nc1ccc(-c2nc(-c3cccc(OCCN4CCOCC4)c3)c(-c3ccnc(Br)c3)[nH]2)cc1)c1ccccc1 | > 100 | 2.76 |  | > 100 | 6.38 |  |  | 3.94 | 3.2 | 3.55 | 0.364 |  | 4.48 | 2.05 | 0.72 |  |  | 1.5 | 3.76 | 1.69
29 | CCOC(=O)CCn1ncc(Cl)c(Cl)c1=O | 33.7 | 29.6 | 17.1 | 34.5 | 9.7 | 2.9 | 25.7 | 6.58 | 4.69 |  |  |  |  |  |  |  |  |  |  | 
30 | C=CCO/N=C(\OC(=O)c1ccc([N+](=O)[O-])cc1)c1ccccc1 | > 100 | > 100 | > 100 | > 100 | > 100 | > 100 |  | > 100 | > 100 |  |  |  |  |  |  |  |  |  |  | 
31 | N/N=C1\C(=O)N(c2ccc(Cl)cc2Cl)C(=O)C(=O)C1c1nc2ccccc2o1 (stereo unspecified) | > 100 | > 100 | > 100 | > 100 | > 100 | > 100 | > 100 | > 100 | > 100 |  |  |  |  |  |  |  |  |  |  | 
32 | Cc1cccc(C)c1NC(=O)CCc1nc(=S)[nH][nH]1 | > 100 | > 100 | > 100 | > 100 | > 100 | > 100 | > 100 | > 100 | > 100 |  |  |  |  |  |  |  |  |  |  | 
33 | C[C@]12CC[C@H](O)CC1=CC[C@@H]1C2CC[C@]2(C)Nc3c(cnn3-c3ccccc3)CC12 (stereo partly specified) | 29.7 | 9.12 | 14.9 | 83.2 | 8.22 | 36.6 |  | 18.7 | 18.6 |  |  |  |  |  |  |  |  |  |  | 
